Assay results taken from US10245261B2, “Substituted indol-5-ol derivatives and their therapeutic applications” (NantBioScience, Inc., priority 2013, dated 2019).

Key:
IR(h), activated = IR(h), activated (Homo sapiens, UniProt P06213); test: KinaseProfiler kinase assay; type: biochemical
PI3 Kinase (p120γ)(h) = PI3 Kinase (p120γ)(h) (Homo sapiens, UniProt P48736); test: KinaseProfiler kinase assay; type: biochemical
CLK2(h) = CLK2(h) (Homo sapiens, UniProt P49760); test: KinaseProfiler kinase assay; type: biochemical
GCK(h) = GCK(h) (Homo sapiens, UniProt Q12851); test: KinaseProfiler kinase assay; type: biochemical
BRK(h) = BRK(h) (Homo sapiens, UniProt Q13882); test: KinaseProfiler kinase assay; type: biochemical
DRAK1(h) = DRAK1(h) (Homo sapiens, UniProt Q9UEE5); test: KinaseProfiler kinase assay; type: biochemical
CK1γ1(h) = CK1γ1(h) (Homo sapiens, UniProt Q9HCP0); test: KinaseProfiler kinase assay; type: biochemical
Rsk3(h) = Rsk3(h) (Homo sapiens, UniProt Q15349); test: KinaseProfiler kinase assay; type: biochemical
How it was run: (§1)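 Each enzyme was assayed radiometrically: 40 min room-temperature reaction with [γ-33P]ATP and 10 mM Mg acetate, acid-stopped, filtered, scintillation-counted.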

CLK3(h) = CLK3(h) (Homo sapiens, UniProt P49761); test: KinaseProfiler kinase assay; type: biochemical
How it was run: as §1

PKG1α(h) = PKG1α(h) (Homo sapiens, UniProt Q13976); test: KinaseProfiler kinase assay; type: biochemical
How it was run: as §1

CK1γ2(h) = CK1γ2(h) (Homo sapiens, UniProt P78368); test: KinaseProfiler kinase assay; type: biochemical
How it was run: as §1

ROCK-I(h) = ROCK-I(h) (Homo sapiens, UniProt Q13464); test: KinaseProfiler kinase assay; type: biochemical
How it was run: as §1

Met(D1246N)(h) = Met(D1246N)(h) (Homo sapiens, UniProt P08581, D1228N); test: KinaseProfiler kinase assay; type: biochemical
How it was run: as §1

BTK(h) = BTK(h) (Homo sapiens, UniProt Q06187); test: KinaseProfiler kinase assay; type: biochemical
How it was run: as §1

Lck(h) = Lck(h) (Homo sapiens, UniProt P06239); test: KinaseProfiler kinase assay; type: biochemical
GSK3α(h) = GSK3α(h) (Homo sapiens, UniProt P49840); test: KinaseProfiler kinase assay; type: biochemical
[1] = biological target: PI3 Kinase (p110β/p85α)(h) (Homo sapiens, UniProt P42338); test: KinaseProfiler kinase assay; type: biochemical
[2] = system: AN3 human endometrial carcinoma xenograft; test: Endometrial carcinoma xenograft; type: in vivo, mouse
[3] = system: FLT3 phosphorylation (pFLT3) of MV4-11 tumors; test: FLT3 phosphorylation in MV4-11 tumor xenografts after oral dosing; type: in vivo; conditions: Mus musculus, 24 hour after single oral 50 mg/kg
Method: (§2) The mice carrying the established MV4-11 tumor xenografts (tumor volume around 150 mm^3) were given an oral dose of 50 mg/kg NTW-3456. At 0, 1, 2, 8, 16, 24 hours after dosing, three were euthanized. The blood samples were collected and plasma was prepared with centrifuge for LCMS assay. And the tumors were harvested, homogenized in lysis buffer, immunoprecipitated with anti-FLT3 antibody FIG. 33.
(§3) The curve (solid dot) is the plot of plasma concentration-time profiles of NTW-3456 after oral administration of 50 mg/kg.

[4] = system: Panc-1 pancreatic carcinoma; test: Panc-1 model of pancreatic carcinoma; type: in vivo, mouse; conditions: with or without Abraxane
[5] = Plasma concentration after oral dosing in MV4-11 tumor-bearing mice (LCMS); type: in vivo; conditions: SCID, mouse, 24 hour after single oral 50 mg/kg
Method: as §2, §3

[6] = system: SC LOX IMVI Melanoma Xenografts; test: SC LOX IMVI Melanoma Xenografts model in nude mice; type: in vivo, mouse; conditions: 50 mg/kg intraperitoneal
Method: (§4) The in vivo anti-tumor efficacy of Compound 53 has been studied using SC LOX IMVI Melanoma Xenografts model in nude mice (FIG. 76). This was a subcutaneous early stage experiment (defined as a median tumor staging size less than 200 mg). Compound 53 or vehicle control was administered by Intraperitoneal injection for various days with different doses.

[7] = system: U251 human CNS tumor xenograft; test: U251 human CNS tumor xenograft model in nude mice; type: in vivo, mouse; conditions: 60 mg/kg intraperitoneal
Method: as §4, with “U251 human CNS tumor xenograft” for “SC LOX IMVI Melanoma Xenografts”, “16).” for “76).”, “doses. […] Compound 53 was well tolerated at this doses with maximum body weight lose 3.4%.” for “doses.”

BTK(h), sequence (Q06187 whole entry): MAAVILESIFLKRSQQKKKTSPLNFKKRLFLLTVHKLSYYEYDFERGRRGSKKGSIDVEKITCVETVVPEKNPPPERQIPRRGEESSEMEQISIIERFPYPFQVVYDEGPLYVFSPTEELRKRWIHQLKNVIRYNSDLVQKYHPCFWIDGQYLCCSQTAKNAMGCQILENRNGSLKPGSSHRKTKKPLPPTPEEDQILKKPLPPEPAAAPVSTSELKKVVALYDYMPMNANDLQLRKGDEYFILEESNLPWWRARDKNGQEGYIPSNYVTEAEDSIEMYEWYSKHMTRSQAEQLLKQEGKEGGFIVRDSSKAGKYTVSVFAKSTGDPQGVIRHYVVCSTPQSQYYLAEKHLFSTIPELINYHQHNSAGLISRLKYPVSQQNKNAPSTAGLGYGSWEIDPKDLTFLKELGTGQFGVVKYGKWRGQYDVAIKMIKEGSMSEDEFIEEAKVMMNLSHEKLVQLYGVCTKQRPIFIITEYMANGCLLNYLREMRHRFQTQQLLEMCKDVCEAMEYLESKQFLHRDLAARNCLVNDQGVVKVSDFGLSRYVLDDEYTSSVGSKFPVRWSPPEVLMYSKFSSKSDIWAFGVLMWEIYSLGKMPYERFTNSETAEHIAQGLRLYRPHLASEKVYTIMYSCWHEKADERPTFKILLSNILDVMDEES
CK1γ2(h), sequence (P78368 whole entry): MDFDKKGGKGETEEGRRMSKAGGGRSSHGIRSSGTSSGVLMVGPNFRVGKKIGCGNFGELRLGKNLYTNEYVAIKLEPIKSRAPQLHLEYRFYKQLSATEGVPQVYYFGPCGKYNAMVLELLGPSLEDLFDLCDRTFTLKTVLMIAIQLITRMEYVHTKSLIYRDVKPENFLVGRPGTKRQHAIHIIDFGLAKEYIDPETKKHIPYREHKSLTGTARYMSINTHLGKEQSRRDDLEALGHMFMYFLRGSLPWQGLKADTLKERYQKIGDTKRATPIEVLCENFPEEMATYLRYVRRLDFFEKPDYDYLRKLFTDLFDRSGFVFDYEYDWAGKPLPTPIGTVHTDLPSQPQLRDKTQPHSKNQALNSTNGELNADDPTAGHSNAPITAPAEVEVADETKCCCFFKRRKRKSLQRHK
IR(h), activated, sequence (P06213 1005-1310): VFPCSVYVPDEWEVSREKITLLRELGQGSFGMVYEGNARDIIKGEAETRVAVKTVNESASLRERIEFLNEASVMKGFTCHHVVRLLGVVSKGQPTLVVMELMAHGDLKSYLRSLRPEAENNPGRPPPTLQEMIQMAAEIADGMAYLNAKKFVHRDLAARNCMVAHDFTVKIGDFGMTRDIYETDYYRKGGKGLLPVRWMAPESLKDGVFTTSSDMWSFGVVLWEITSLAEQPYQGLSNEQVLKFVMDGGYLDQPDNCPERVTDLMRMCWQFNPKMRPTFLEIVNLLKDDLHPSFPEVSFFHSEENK
Met(D1246N)(h), sequence (P08581 25-1408 isoform P08581-2 D1246N): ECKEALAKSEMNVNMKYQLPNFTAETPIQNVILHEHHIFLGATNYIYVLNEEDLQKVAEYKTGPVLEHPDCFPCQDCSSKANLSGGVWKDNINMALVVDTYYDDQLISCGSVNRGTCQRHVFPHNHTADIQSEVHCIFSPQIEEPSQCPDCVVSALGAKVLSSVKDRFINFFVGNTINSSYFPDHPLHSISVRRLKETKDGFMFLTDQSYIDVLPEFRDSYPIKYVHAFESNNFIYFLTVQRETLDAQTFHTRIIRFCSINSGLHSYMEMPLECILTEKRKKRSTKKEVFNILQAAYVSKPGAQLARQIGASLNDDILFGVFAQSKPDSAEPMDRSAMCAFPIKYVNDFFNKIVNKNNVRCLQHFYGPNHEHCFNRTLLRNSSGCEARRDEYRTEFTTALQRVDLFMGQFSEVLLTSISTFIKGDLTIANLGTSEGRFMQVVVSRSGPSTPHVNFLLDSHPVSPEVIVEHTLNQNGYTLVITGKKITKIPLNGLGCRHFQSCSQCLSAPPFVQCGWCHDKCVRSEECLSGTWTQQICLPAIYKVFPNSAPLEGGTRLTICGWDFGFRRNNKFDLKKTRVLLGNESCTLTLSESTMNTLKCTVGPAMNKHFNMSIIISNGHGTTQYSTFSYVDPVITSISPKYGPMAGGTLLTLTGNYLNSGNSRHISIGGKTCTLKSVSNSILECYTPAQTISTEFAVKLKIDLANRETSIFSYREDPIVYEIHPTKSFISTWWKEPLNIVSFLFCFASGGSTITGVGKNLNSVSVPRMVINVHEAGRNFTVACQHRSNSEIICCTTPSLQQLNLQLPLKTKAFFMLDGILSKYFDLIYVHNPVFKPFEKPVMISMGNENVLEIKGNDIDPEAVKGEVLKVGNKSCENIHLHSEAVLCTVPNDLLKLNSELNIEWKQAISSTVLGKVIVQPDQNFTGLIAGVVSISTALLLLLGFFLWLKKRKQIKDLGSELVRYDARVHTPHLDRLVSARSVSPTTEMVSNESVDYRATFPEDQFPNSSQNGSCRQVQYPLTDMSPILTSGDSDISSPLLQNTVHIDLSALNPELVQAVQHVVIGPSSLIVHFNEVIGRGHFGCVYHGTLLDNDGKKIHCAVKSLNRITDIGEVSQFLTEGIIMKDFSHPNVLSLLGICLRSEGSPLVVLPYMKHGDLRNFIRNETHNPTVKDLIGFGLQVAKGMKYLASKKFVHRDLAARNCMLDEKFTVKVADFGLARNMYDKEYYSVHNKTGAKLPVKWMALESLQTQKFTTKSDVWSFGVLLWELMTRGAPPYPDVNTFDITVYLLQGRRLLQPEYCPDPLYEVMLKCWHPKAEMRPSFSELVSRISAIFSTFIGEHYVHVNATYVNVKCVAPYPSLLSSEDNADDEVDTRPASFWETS
GCK(h), sequence (Q12851 whole entry): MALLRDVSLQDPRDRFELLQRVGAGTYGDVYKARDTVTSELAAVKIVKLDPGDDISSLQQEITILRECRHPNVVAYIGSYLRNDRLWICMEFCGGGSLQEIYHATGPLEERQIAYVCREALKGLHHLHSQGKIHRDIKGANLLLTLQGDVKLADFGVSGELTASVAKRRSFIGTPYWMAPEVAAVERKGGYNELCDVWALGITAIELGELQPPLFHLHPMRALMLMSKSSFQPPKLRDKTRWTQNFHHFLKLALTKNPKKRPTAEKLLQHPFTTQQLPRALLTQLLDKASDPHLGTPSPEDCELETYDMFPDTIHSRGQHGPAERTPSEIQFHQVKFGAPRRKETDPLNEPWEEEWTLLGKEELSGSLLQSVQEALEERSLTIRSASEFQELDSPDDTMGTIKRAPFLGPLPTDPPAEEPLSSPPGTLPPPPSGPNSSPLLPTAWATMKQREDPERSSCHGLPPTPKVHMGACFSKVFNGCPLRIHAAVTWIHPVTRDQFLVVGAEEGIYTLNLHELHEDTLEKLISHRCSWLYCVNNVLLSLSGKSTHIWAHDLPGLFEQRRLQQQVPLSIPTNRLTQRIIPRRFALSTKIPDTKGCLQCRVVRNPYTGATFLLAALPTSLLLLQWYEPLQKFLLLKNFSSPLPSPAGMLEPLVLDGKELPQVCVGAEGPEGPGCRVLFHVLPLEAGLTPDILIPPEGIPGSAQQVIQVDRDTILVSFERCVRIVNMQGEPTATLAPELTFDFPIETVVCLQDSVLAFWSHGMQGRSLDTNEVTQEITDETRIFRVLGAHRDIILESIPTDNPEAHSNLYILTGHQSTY
DRAK1(h), sequence (Q9UEE5 whole entry): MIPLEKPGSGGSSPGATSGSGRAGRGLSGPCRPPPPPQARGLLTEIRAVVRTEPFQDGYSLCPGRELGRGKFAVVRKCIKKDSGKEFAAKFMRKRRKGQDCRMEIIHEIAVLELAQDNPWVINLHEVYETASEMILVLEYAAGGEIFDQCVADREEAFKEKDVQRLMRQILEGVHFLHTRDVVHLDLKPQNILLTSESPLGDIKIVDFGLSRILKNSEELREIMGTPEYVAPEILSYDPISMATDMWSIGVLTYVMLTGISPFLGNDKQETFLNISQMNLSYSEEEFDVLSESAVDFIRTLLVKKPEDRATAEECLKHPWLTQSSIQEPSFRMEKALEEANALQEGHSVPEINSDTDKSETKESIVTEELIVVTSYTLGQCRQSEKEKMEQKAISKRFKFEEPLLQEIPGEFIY
Lck(h), sequence (P06239 whole entry): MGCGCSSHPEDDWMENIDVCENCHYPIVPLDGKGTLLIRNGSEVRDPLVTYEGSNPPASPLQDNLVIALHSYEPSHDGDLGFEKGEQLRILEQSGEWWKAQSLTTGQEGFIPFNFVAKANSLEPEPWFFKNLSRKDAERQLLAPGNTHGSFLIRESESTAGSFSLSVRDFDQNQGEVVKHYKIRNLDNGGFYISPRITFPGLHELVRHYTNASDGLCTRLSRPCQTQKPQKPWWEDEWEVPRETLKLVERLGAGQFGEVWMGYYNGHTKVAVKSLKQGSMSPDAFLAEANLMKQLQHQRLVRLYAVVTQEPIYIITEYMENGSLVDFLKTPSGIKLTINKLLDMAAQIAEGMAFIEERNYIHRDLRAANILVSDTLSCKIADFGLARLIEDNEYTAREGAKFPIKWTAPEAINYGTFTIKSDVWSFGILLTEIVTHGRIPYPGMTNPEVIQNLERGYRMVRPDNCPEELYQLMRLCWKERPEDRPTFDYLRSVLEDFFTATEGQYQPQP
CLK2(h), sequence (P49760 whole entry): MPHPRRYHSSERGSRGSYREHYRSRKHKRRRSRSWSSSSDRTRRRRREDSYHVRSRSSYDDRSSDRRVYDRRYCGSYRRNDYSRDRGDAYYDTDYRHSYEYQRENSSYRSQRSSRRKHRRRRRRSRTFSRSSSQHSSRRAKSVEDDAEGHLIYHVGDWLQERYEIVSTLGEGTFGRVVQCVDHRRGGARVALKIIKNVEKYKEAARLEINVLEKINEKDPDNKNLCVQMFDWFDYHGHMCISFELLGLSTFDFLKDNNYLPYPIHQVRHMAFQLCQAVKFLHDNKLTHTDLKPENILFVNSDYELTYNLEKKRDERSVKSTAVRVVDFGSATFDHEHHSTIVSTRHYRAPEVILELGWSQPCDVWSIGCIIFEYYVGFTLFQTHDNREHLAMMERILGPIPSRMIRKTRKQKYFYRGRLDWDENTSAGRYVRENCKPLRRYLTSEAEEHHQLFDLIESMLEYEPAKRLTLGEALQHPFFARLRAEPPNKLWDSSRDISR

Row | Compound | inhibition at 0.1 µM (IR(h), activated) | inhibition at 0.1 µM (PI3 Kinase (p120γ)(h)) | inhibition at 0.1 µM (CLK2(h)) | inhibition at 0.1 µM (GCK(h)) | inhibition at 0.1 µM (BRK(h)) | inhibition at 0.1 µM (DRAK1(h)) | inhibition at 0.1 µM (CK1γ1(h)) | inhibition at 0.1 µM (Rsk3(h)) | inhibition at 0.1 µM (CLK3(h)) | inhibition at 0.1 µM (PKG1α(h)) | inhibition at 0.1 µM (CK1γ2(h)) | inhibition at 0.1 µM (ROCK-I(h)) | inhibition at 0.1 µM (Met(D1246N)(h)) | inhibition at 0.1 µM (BTK(h)) | inhibition at 0.1 µM (Lck(h)) | inhibition at 0.1 µM (GSK3α(h)) | inhibition at 0.1 µM [1] | further results
1 | Cc1cc2c(F)c(Oc3nc(Nc4cc(C5CC5)[nH]n4)cc(N4CCN(C)CC4)n3)ccc2[nH]1 [Compound 10] | 73% | -2% | 29% | 79% | 54% | 36% | -4% | 63% | 16% | -25% | -20% | -15% | 80% | 50% | 99% | 28% | 0% | 
2 | C/C=C/c1cc(Nc2cc(N3CCN(C)CC3)nc(Oc3cc(F)c4[nH]c(C)cc4c3F)n2)n[nH]1 [NTW-3456] |  |  |  |  |  |  |  |  |  |  |  |  |  |  |  |  |  | anti-tumor effect [2]: significant anti-tumor activity; inhibition at 50 mg/kg [3]: > 60%; anti-tumor activity [4]: significant anti-tumor activity; concentration at 24 h [5]: 7 nM
3 | C/C=C/c1cc(Nc2cc(N3CCN(C)CC3)nc(Oc3ccc4[nH]c(C)cc4c3F)n2)n[nH]1 [Compound 53] |  |  |  |  |  |  |  |  |  |  |  |  |  |  |  |  |  | maximum body weight lose ([6]; QDx4): 10.3%; treat/control (T/C) ([6]; QDx4, day 13): 21%; maximum body weight lose ([7]; Q2Dx3): 3.4%; treat/control (T/C) ([7]; Q2Dx3, day 30): 40%
4 | Cc1cc2c(F)c(Oc3nc(Nc4cc(C5CC5)[nH]n4)cc(N4CCNCC4)n3)ccc2[nH]1 [Compound 11, N-(5-cyclopropyl-1H-pyrazol-3-yl)-2-((4-fluoro-2-methyl-1H-indol-5-yl)oxy)-6-(piperazin-1-yl)pyrimidin-4-amine] | 71% | -1% | -3% | 85% | 73% | 42% | -10% | 63% | -14% | -5% | -16% | -15% | 84% | 71% | 98% | 20% | -1% | 
